{"source": "patent US11234436B2", "about": "“Method for controlling non-crop pests” (BASF Agrochemical Products B.V., priority 2015, dated 2022)", "tested_on": "German Cockroach (Blattella germanica)", "test": "Test 1: activity against German cockroach, treated glass vial contact, mortality", "type": "in vivo", "settings": "alone, 1 h exposure in treated vial", "description": "Test 1. Activity Against German Cockroach (Blattella germanica)\nGlass vials were treated with 445 μl of varying concentrations of the technical grade active ingredient dissolved in acetone. Vials were turned on their sides and placed on an automated roller table. The vials were rolled (6 rpm) uncapped to allow an even coating of the treatment. Each treatment was replicated five times.\nPrior to infestation, cockroaches were incapacitated using carbon dioxide (CO2). Approximately 6 insects were transferred with featherweight, broad tip forceps into treated vials, and held in an environmental chamber at 27° C. and 80% relative humidity for one hour. Following this exposure period, a small amount of CO2 was used to incapacitate the insects facilitating removal from treated vials. Insects were then transferred to 16 oz plastic holding containers provisioned with a small piece of dry cat food and a cotton wick moistened with water, and returned to the environmental chamber. Mortality was assessed at 1, 2, and 3 days after exposure (DAE)."}
{"compound": "CC1(C)C(C=C(Cl)Cl)C1C(=O)OC(C#N)c1cccc(Oc2ccccc2)c1", "note": "(stereo not drawn) [Alphacypermethrin, alpha-cypermethrin]", "values": [{"measurement": "Average Control %", "setting": "Test Mixture 1.4, 1.96 ppm", "value": 0, "unit": "%"}]}
{"compound": "CCOCn1c(-c2ccc(Cl)cc2)c(C#N)c(Br)c1C(F)(F)F", "note": "[Chlorfenapyr, chlorfenapyr]", "values": [{"measurement": "Average Control %", "setting": "Test Mixture 1.3, 100 ppm", "value": 3.3, "unit": "%"}]}
{"compound": "CN(C(=O)c1ccccc1)c1cccc(C(=O)Nc2c(Br)cc(C(F)(C(F)(F)F)C(F)(F)F)cc2C(F)(F)F)c1F", "note": "[Compound i) of formula (I), broflanilide]", "values": [{"measurement": "Average Control %", "setting": "Mixture 1.1, 9.2 ppm", "value": 10, "unit": "%"}, {"measurement": "Average Control %", "setting": "Test Mixture 1.2, 10 ppm", "value": 10, "unit": "%"}, {"measurement": "Average Control %", "setting": "Test Mixture 1.3, 9.5 ppm", "value": 26.7, "unit": "%"}, {"measurement": "Average Control %", "setting": "Test Mixture 1.4, 9.5 ppm", "value": 46.7, "unit": "%"}]}
{"compound": "CN/C(=N/CC1CCOC1)N[N+](=O)[O-]", "note": "(centres unmarked) [Dinotefuran, dinotefuran]", "values": [{"measurement": "Average Control %", "setting": "Mixture 1.1, 2.6 ppm", "value": 16.7, "unit": "%"}, {"measurement": "Average Control %", "setting": "Test Mixture 1.2, 4.1 ppm", "value": 30, "unit": "%"}]}
